In article PMC7501730, “Discovery of novel small molecule inhibitors of S100P with in vitro anti-metastatic effects on pancreatic cancer cells” (European Journal of Medicinal Chemistry, 2020):
Where two headings read alike, the source gives them in different places.

Tests used:
S100P-RAGE interaction = target: T1, S100P-RAGE interaction (Homo sapiens, UniProt P25815); experiment: ELISA of S100P-RAGE binding inhibition; conditions: for IC50: read-out: Estimated IC50; for ELISA inhibition: concentration with significant inhibition of S100P-RAGE binding, asterisks = significance by one-way ANOVA
T1 construct: His tag (N); made in house; host or cells: Escherichia coli BL21*
T1 sequence (P25815 1-95): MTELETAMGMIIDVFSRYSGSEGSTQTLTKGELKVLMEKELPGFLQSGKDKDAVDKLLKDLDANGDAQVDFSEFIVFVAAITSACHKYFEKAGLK
Method: The purchased computational screening hits were subjected to initial biological testing for inhibition of S100P-RAGE binding (ELISA), with cromolyn as positive control, using an adaptation of the reported ELISA for S100 family members.
Fig. 2 Effects of compounds 1–14 on S100P binding to RAGE. Human S100P (2 μM) coated wells were incubated with increasing concentrations of the compound tested, in triplicate, and exposed to human RAGE-Fc (100 nM) followed by goat anti-human secondary antibody to detect RAGE bound S100P. Data are compared to S100P/RAGE binding with no inhibitor (DMSO, 100%) and are presented as mean ± SEM; data is significant by one way ANOVA, where ∗ = p < 0.05, ∗∗ = p < 0.01 and ∗∗∗ = p < 0.001; n = 9 from 3 plates.
To generate human S100P recombinant protein, a pQE-30 ([…]) plasmid encoding S100P with N-terminal histidine tags (gifted by Dr Igor Barsukov, Liverpool University, UK), was transformed into BL21∗ competent Escherichia coli cells. Recombinant protein was purified using a HisTrap Nickel-nitrilotriacetic acid (Ni-NTA) agarose column (GE Healthcare, UK).
Purified recombinant S100P (2μM/well) in phosphate buffer (PBS; 137 mM NaCl, 2.7 mM KCl, 10 mM Na2HPO4, 1.8 mM KH2PO4, pH 7.4; supplemented with 1 mM CaCl2, 10 μM ZnCl2, and 0.5 mM MgCl2) was used for coating a 96 well plate (NunclonDelta, Fisher), and incubated overnight at 37 °C.
Following washing, S100P non-specific binding sites were blocked with 1% bovine serum albumin (BSA; Fisher, UK) in PBS for 2 h at 37 °C. Following three washes, S100P was incubated with increasing concentrations of compounds, in parallel to cromolyn and DMSO treated wells, all in triplicate. Then 30 nM recombinant human receptor for advanced glycation end products (rh/RAGE-Fc; R&D Systems) was added and incubated for 1 h at 37 °C. Controls included a negative control (S100P protein, no RAGE-Fc), a positive control (S100P protein plus RAGE), and vehicle control (0.001% DMSO in PBS) were included in each plate. After three washes in PBS, all wells were exposed to goat anti-human HRP conjugate (1:1000; Millipore) for 1 h at 37 °C in order to detect bound receptors. Subsequent to washes, wells were incubated for 20 min in the dark with 3,3′,5,5′-tetramethylbenzidene (TMB) substrate (Sigma, UK). Plates were read at 450 nm using a Multiskan Ascent spectrophotometer (Fisher Scientific, UK). All sample readings were normalized to the positive control (S100P plus RAGE-Fc). Statistical analysis was performed and graphs plotted using the GraphPad Prism software in the following way: One Way ANOVA was used to compare the effects of concentration of each compound to the effects of vehicle control (DMSO), and p values of <0.05 were considered statistically significant. A post hoc analysis was conducted using Dunnetts multiple comparisons test; results are indicated by ∗ = p < 0.05; ∗∗ = p < 0.01 and ∗∗∗ = p < 0.001.

[1] = test system: BxPC-3 cells (S100P-expressing); experiment: LDH release cytotoxicity assay, BxPC-3; assay type: cell-based, Human; conditions: BxPC-3, 10 μM, over three days incubation, compared to vehicle control
Method: Metabolic activity and cytotoxicity/cytolysis were measured with the MTS (CellTiter® 96 AQueous One Solution assay, Promega) and LDH release (CytoTox-ONE™ Homogeneous Membrane Integrity assay, Promega) assays respectively, in S100P-expressing (BxPC-3) and S100P-negative (Panc-1) cell lines, at a compound concentration of 10 μM. Cromolyn was used as a positive control.
1 × 10^5 Panc-1 cells and 1x10^5 BxPC-3 cells were plated and allowed to adhere for 24 h; the cells were treated with cromolyn or the hit compounds for up to 3 days. MTS (CellTiter® 96 AQueous One Solution assay, Promega) and LDH release (CytoTox-ONE™ Homogeneous Membrane Integrity assay, Promega) assays were carried out every 24 h for a total of 3 days. MTS data was calculated in the following manner: OD for background absorbance was subtracted and all samples normalized to untreated cells in order to ascertain whether any compound-dependent effect occurred.
(§3) Since formazan formation is proportional to LDH release, data was calculated by subtracting the OD background and plotting the mean ± SEM.
10^5 BxPC3 cells were treated with 10 µM hit compounds for 24 hours, and the effect on LDH staining for each time point measured by fluorescence microplate reader.

[2] = test system: Panc-1 cells (S100P-negative); experiment: LDH release cytotoxicity assay, Panc-1; assay type: cell-based, Human; conditions: Panc-1, 10 μM, over three days incubation, compared to vehicle control
Method: Metabolic activity and cytotoxicity/cytolysis were measured with the MTS (CellTiter® 96 AQueous One Solution assay, Promega) and LDH release (CytoTox-ONE™ Homogeneous Membrane Integrity assay, Promega) assays respectively, in S100P-expressing (BxPC-3) and S100P-negative (Panc-1) cell lines, at a compound concentration of 10 μM. Cromolyn was used as a positive control. […]
1 × 10^5 Panc-1 cells and 1x10^5 BxPC-3 cells were plated and allowed to adhere for 24 h; the cells were treated with cromolyn or the hit compounds for up to 3 days. […] MTS data was calculated in the following manner: OD for background absorbance was subtracted and all samples normalized to untreated cells in order to ascertain whether any compound-dependent effect occurred.
as §3
10^5 Panc- 1 cells were treated with 10 µM hit compounds for 24 hours, and the effect on LDH staining for each time point measured by fluorescence microplate reader.

[3] = test system: BxPC-3 cells (S100P-positive); experiment: Transwell Matrigel invasion assay, BxPC-3; assay type: cell-based, Human; conditions: 10% FBS chemoattractant
Method: The effect of the S100P-binding hit compounds to inhibit cell invasion in S100P-expressing cells in vitro was measured via a Transwell invasion assay. In this assay, cells invade through the matrigel on upper Transwell chamber towards a lower chamber containing a chemoattractant.
Data is shown as mean ± SEM number of invasive cells as counted under the microscope (x100).
The Transwell invasion assay (Fisher Scientific, Germany) was performed using chambers with polyethylene terephthalate (PET) membrane filters with 8 μm pore size coated on the upper side with Matrigel (a layer of extracellular matrix (ECM) to mimic the process of the ECM invasion.
BxPC-3 and Panc-1 cells were cultured as described above for 24 h, were re-suspended and diluted in the appropriate serum-free medium to a seeding density of 2 × 10^5 cells/mL and added to the upper chambers of the Transwell invasion chambers. DMEM and RPMI-1640 media were supplemented with 10% fetal bovine serum (FBS; Sigma, USA) to act as a chemoattractant. […]
Cells that had passed through the matrigel coated membrane to the lower surface were fixed and stained with Diff-Quik stain kit (Fisher, USA) according to the manufacturer’s instructions. […] The number of invaded cells were counted in five different fields of view using the ImageJ 1.50i software (windows version of NIH Image, http://rsb.info.nih.gov/nih-image/). […]

BxPC-3 cells = experiment: LDH release from cells in upper Transwell chamber, BxPC-3; assay type: cell-based, Human; conditions: BxPC-3, 48 h; hit compounds 10 μM, cromolyn 10, 100 and 300 μM
Method: (§1) In order to exclude any possibility that reduced cell invasiveness was due to cell death during the time period of the assay, the viability of cells in the upper Transwell® chamber was assessed via measurement of LDH release. […] (Supplementary Data).
(§2) Figure S2: No significant difference in cell toxicity, measured by LDH release, is observed between treated and untreated cells in the Transwell® invasion assay. Cytotoxicity was measured using the medium recovered from the upper chamber of each Transwell ® chamber which contained BxPC-3 (A) and Panc-1 (B) cells treated with cromolyn (10 µM, 100 µM, and 300 µM) and hit compounds (10 µM) and incubated for 48 h. Data are the mean ± SEM of three independent experiments (n=3). One-way ANOVA assessed significance, and Dunnett post-hoc test is denoted by ns=P>0.05 in comparison to untreated control.

Panc-1 cells = experiment: LDH release from cells in upper Transwell chamber, Panc-1; assay type: cell-based, Human; conditions: Panc-1, 48 h; hit compounds 10 μM, cromolyn 10, 100 and 300 μM
Method: as §1, §2

Row | concentration with significant inhibition of S100P-RAGE binding (S100P-RAGE interaction; ELISA) | IC50 (S100P-RAGE interaction; Table 1, ELISA, human S100P 2 μM coated wells, human RAGE-Fc) | ELISA inhibition (S100P-RAGE interaction; Table 2) | melting point | IC50 (S100P-RAGE interaction; Table 2, ELISA, analog series of hit 4) | Compound | maximum inhibition of S100P-RAGE binding (S100P-RAGE interaction; ELISA) | cytotoxicity (LDH release) [1] | cytotoxicity (LDH release) [2] | inhibition of cell invasion to the lower chamber ([3]; BxPC-3, 10 μM, 48 h) | concentration with significant inhibition of invasion ([3]; BxPC-3, 48 h) | LDH release of cells in upper Transwell chamber (BxPC-3 cells) | LDH release of cells in upper Transwell chamber (Panc-1 cells)
1 | ≥ 10 nM | 0.0227 µM | 10 nM∗∗ | 271 to 272 °C | – | O=C(O)c1cccc(N2C(=O)C3C4c5ccccc5C([N+](=O)[O-])(c5ccccc54)C3C2=O)c1 (stereo not shown) [Compound 4, 3-(9-Nitro-12,14-dioxo-9,10-dihydro-9,10-[3,4]epipyrroloanthracen-13-yl)benzoic acid] | – | – | – | – | – | – | –
2 | ≤ 100 nM | – | <10 nM∗∗∗ | 344 to 345 °C | 0.000482 µM | O=C(O)c1ccc(N2C(=O)C3C4c5ccccc5C([N+](=O)[O-])(c5ccccc54)C3C2=O)cc1 (stereo not shown) [Compound 4f, 4-(9-Nitro-12,14-dioxo-9,10-dihydro-9,10-[3,4]epipyrroloanthracen-13-yl)benzoic acid] | – | – | – | – | – | – | –
3 | ≤ 100 nM | – | 100 nM∗ | 241 to 243 °C | – | O=C1C2C3c4ccccc4C([N+](=O)[O-])(c4ccccc43)C2C(=O)N1c1cccc(F)c1 (stereo not shown) [Compound 4b, 13-(3-fluorophenyl)-9-nitro-9,10-dihydro-9,10-[3,4]epipyrroloanthracene-12,14-dione] | – | – | – | – | – | – | –

Row | Compound | concentration with significant inhibition of S100P-RAGE binding (S100P-RAGE interaction; ELISA) | IC50 (S100P-RAGE interaction; Table 1, ELISA, human S100P 2 μM coated wells, human RAGE-Fc) | ELISA inhibition (S100P-RAGE interaction; Table 2) | melting point | IC50 (S100P-RAGE interaction; Table 2, ELISA, analog series of hit 4) | maximum inhibition of S100P-RAGE binding (S100P-RAGE interaction; ELISA) | cytotoxicity (LDH release) [1] | cytotoxicity (LDH release) [2] | inhibition of cell invasion to the lower chamber ([3]; BxPC-3, 10 μM, 48 h) | concentration with significant inhibition of invasion ([3]; BxPC-3, 48 h) | LDH release of cells in upper Transwell chamber (BxPC-3 cells) | LDH release of cells in upper Transwell chamber (Panc-1 cells)
4 | O=C(O)c1cc(=O)c2c(OCC(O)COc3cccc4oc(C(=O)O)cc(=O)c34)cccc2o1 [cromolyn] | ≥ 100 nM | – | – | – | – | 56% | neither the hit compounds nor cromolyn exhibited cytotoxicity | neither the hit compounds nor cromolyn exhibited cytotoxicity | did not exhibit a statistically significant effect | ≥ 100 µM | no significant increase in LDH release | no significant increase in LDH release
